Results: ChEMBL document CHEMBL1649287, “Postantibiotic effect of ceftaroline against gram-positive organisms” (2009)
Converted amounts (≈) assume the structure as drawn.

Experiments:
Format in all cases: functional
Enterococcus faecalis [1] = experiment: Antimicrobial activity against vancomycin-resistant Enterococcus faecalis 266 assessed as time required to induce post antibiotic sub-MIC effect at 0.4 times MIC after 1 hr by plate counting method; conditions: Enterococcus faecalis, 266, 1 h
Enterococcus faecalis [2] = experiment: Antimicrobial activity against vancomycin-sensitive Enterococcus faecalis ATCC 29212 assessed as time required to induce post antibiotic sub-MIC effect at 0.3 times MIC after 1 hr by plate counting method; conditions: ATCC 29212, 1 h
Streptococcus pneumoniae [3] = experiment: Antimicrobial activity against Penicillin-intermediate Streptococcus pneumoniae s1234 assessed as time required to induce post antibiotic sub-MIC effect at 0.4 times MIC after 1 hr by plate counting method; conditions: s1234, 1 h
Enterococcus faecalis [4] = experiment: Antimicrobial activity against vancomycin-sensitive Enterococcus faecalis 20 assessed as time required to induce sub-MIC effect at 0.2 times MIC after 1 hr by plate counting method; conditions: Enterococcus faecalis, 20, 1 h
Staphylococcus aureus [5] = experiment: Antimicrobial activity against methicillin-resistant, vancomycin-intermediate Staphylococcus aureus 510 assessed as time required to induce post antibiotic sub-MIC effect at 0.2 times MIC after 1 hr by plate counting method; conditions: Staphylococcus aureus, 510, 1 h
Streptococcus pneumoniae [6] = experiment: Antimicrobial activity against Penicillin-susceptible Streptococcus pneumoniae ATCC 49617 assessed as time required to induce post antibiotic sub-MIC effect at 0.3 times MIC after 1 hr by plate counting method; conditions: ATCC 49617, 1 h
Staphylococcus aureus [7] = experiment: Antimicrobial activity against methicillin-resistant, vancomycin-susceptible Staphylococcus aureus vs1 by microdilution method
Enterococcus faecalis [8] = experiment: Antimicrobial activity against vancomycin-sensitive Enterococcus faecalis ATCC 29212 assessed as post antibiotic effect at 10 times MIC after 1 hr by plate counting method; conditions: ATCC 29212, 1 h
Streptococcus pneumoniae [9] = experiment: Antimicrobial activity against Penicillin-, erythromycin-resistant Streptococcus pneumoniae 37 assessed as post antibiotic effect at 10 times MIC after 1 hr by plate counting method; conditions: Streptococcus pneumoniae, 37, 1 h
Staphylococcus aureus [10] = experiment: Antimicrobial activity against methicillin-resistant, vancomycin-intermediate Staphylococcus aureus 510 assessed as time required to induce sub-MIC effect at 0.4 times MIC after 1 hr by plate counting method; conditions: Staphylococcus aureus, 510, 1 h
Streptococcus pneumoniae [11] = experiment: Antimicrobial activity against Penicillin-susceptible Streptococcus pneumoniae ATCC 49617 assessed as post antibiotic effect at 10 times MIC after 1 hr by plate counting method; conditions: ATCC 49617, 1 h
Enterococcus faecalis [12] = experiment: Antimicrobial activity against vancomycin-sensitive Enterococcus faecalis 20 assessed as time required to induce sub-MIC effect at 0.3 times MIC after 1 hr by plate counting method; conditions: Enterococcus faecalis, 20, 1 h
Staphylococcus aureus [13] = experiment: Antimicrobial activity against methicillin-susceptible, vancomycin-susceptible Staphylococcus aureus sox1 assessed as time required to induce sub-MIC effect at 0.2 times MIC after 1 hr by plate counting method; conditions: sox1, 1 h
Staphylococcus aureus [14] = experiment: Antimicrobial activity against methicillin-susceptible, vancomycin-susceptible Staphylococcus aureus ATCC 29213 assessed as time required to induce sub-MIC effect at 0.4 times MIC after 1 hr by plate counting method; conditions: ATCC 29213, 1 h
Streptococcus pneumoniae [15] = experiment: Antimicrobial activity against Penicillin-susceptible Streptococcus pneumoniae s502 assessed as time required to induce sub-MIC effect at 0.3 times MIC after 1 hr by plate counting method; conditions: s502, 1 h
Staphylococcus aureus [16] = experiment: Antimicrobial activity against methicillin-susceptible, vancomycin-susceptible Staphylococcus aureus sox1 assessed as time required to induce sub-MIC effect at 0.4 times MIC after 1 hr by plate counting method; conditions: sox1, 1 h
Enterococcus faecalis [17] = experiment: Antimicrobial activity against vancomycin-sensitive Enterococcus faecalis ATCC 29212 assessed as time required to induce sub-MIC effect at 0.3 times MIC after 1 hr by plate counting method; conditions: ATCC 29212, 1 h
Staphylococcus aureus [18] = experiment: Antimicrobial activity against Staphylococcus aureus ATCC 29213 infected in neutropenic ICR mouse assessed as post antibiotic effect at 1.56 to 100 mg/kg, sc administered 14 hrs post infection; conditions: dose mg/kg 1.56-100; route subcutaneous
Staphylococcus aureus [19] = experiment: Antimicrobial activity against methicillin-susceptible, vancomycin-susceptible Staphylococcus aureus sox1 assessed as time required to induce post antibiotic sub-MIC effect at 0.3 times MIC after 1 hr by plate counting method; conditions: sox1, 1 h
Enterococcus faecalis [20] = experiment: Antimicrobial activity against vancomycin-sensitive Enterococcus faecalis 10 assessed as time required to induce sub-MIC effect at 0.3 times MIC after 1 hr by plate counting method; conditions: Enterococcus faecalis, 10, 1 h
Streptococcus pneumoniae [21] = experiment: Antimicrobial activity against Penicillin-susceptible Streptococcus pneumoniae ATCC 49617 assessed as time required to induce post antibiotic sub-MIC effect at 0.2 times MIC after 1 hr by plate counting method; conditions: ATCC 49617, 1 h
Staphylococcus aureus [22] = experiment: Antimicrobial activity against methicillin-susceptible, vancomycin-susceptible Staphylococcus aureus ATCC 29213 assessed as time required to induce sub-MIC effect at 0.3 times MIC after 1 hr by plate counting method; conditions: ATCC 29213, 1 h
Staphylococcus aureus [23] = experiment: Antimicrobial activity against methicillin-resistant, vancomycin-intermediate Staphylococcus aureus 510 assessed as time required to induce post antibiotic sub-MIC effect at 0.3 times MIC after 1 hr by plate counting method; conditions: Staphylococcus aureus, 510, 1 h
Streptococcus pneumoniae [24] = experiment: Antimicrobial activity against Penicillin-susceptible Streptococcus pneumoniae ATCC 49617 assessed as time required to induce post antibiotic sub-MIC effect at 0.4 times MIC after 1 hr by plate counting method; conditions: ATCC 49617, 1 h
Enterococcus faecalis [25] = experiment: Antimicrobial activity against vancomycin-resistant Enterococcus faecalis 266 assessed as time required to induce post antibiotic sub-MIC effect at 0.2 times MIC after 1 hr by plate counting method; conditions: Enterococcus faecalis, 266, 1 h
Staphylococcus aureus [26] = experiment: Antimicrobial activity against methicillin-susceptible, vancomycin-susceptible Staphylococcus aureus sox1 assessed as time required to induce post antibiotic sub-MIC effect at 0.4 times MIC after 1 hr by plate counting method; conditions: sox1, 1 h
Streptococcus pneumoniae [27] = experiment: Antimicrobial activity against Penicillin-, erythromycin-resistant Streptococcus pneumoniae 37 assessed as time required to induce post antibiotic sub-MIC effect at 0.3 times MIC after 1 hr by plate counting method; conditions: Streptococcus pneumoniae, 37, 1 h
Staphylococcus aureus [28] = experiment: Antimicrobial activity against methicillin-resistant, vancomycin-susceptible Staphylococcus aureus vs1 assessed as time required to induce sub-MIC effect at 0.3 times MIC after 1 hr by plate counting method; conditions: vs1, 1 h
Enterococcus faecalis [29] = experiment: Antimicrobial activity against vancomycin-resistant Enterococcus faecalis 609 by microdilution method
Staphylococcus aureus [30] = experiment: Antimicrobial activity against methicillin-susceptible, vancomycin-susceptible Staphylococcus aureus sox1 by microdilution method
Staphylococcus aureus [31] = experiment: Antimicrobial activity against methicillin-susceptible, vancomycin-susceptible Staphylococcus aureus ATCC 29213 assessed as post antibiotic effect at 10 times MIC after 1 hr by plate counting method; conditions: ATCC 29213, 1 h
Staphylococcus aureus [32] = experiment: Antimicrobial activity against methicillin-resistant, vancomycin-susceptible Staphylococcus aureus vs1 assessed as time required to induce post antibiotic sub-MIC effect at 0.3 times MIC after 1 hr by plate counting method; conditions: vs1, 1 h
Streptococcus pneumoniae [33] = experiment: Antimicrobial activity against Penicillin-susceptible Streptococcus pneumoniae s502 assessed as time required to induce sub-MIC effect at 0.4 times MIC after 1 hr by plate counting method; conditions: s502, 1 h
Staphylococcus aureus [34] = experiment: Antimicrobial activity against methicillin-resistant, vancomycin-susceptible Staphylococcus aureus vs1 assessed as time required to induce post antibiotic sub-MIC effect at 0.4 times MIC after 1 hr by plate counting method; conditions: vs1, 1 h

CCO/N=C(\C(=O)N[C@@H]1C(=O)N2C(C(=O)[O-])=C(Sc3nc(-c4cc[n+](C)cc4)cs3)CS[C@H]12)c1nsc(NP(=O)(O)O)n1 [CEFTAROLINE FOSAMIL]
time (Enterococcus faecalis [1]): > 10.3 h | PAE (Enterococcus faecalis [2]): > 10.6 h | PAE (Streptococcus pneumoniae [3]): 2.5 h | time (Enterococcus faecalis [4]): 0.9 h | time (Staphylococcus aureus [5]): 5.4 h | PAE (Streptococcus pneumoniae [6]): 5.9 h | MIC (Staphylococcus aureus [7]): 0.5 µg/mL (≈ 0.73 µM) | PAE (Enterococcus faecalis [8]): 0.8 h | PAE (Streptococcus pneumoniae [9]): 1.5 h | time (Staphylococcus aureus [10]): 1.3 h | PAE (Streptococcus pneumoniae [11]): 1.6 h | PAE (Enterococcus faecalis [12]): 1.3 h | PAE (Staphylococcus aureus [13]): 0.2 h | PAE (Staphylococcus aureus [14]): 2.8 h | PAE (Streptococcus pneumoniae [15]): 0.3 h | PAE (Staphylococcus aureus [16]): 1.6 h | PAE (Enterococcus faecalis [17]): 3.6 h | PAE (Staphylococcus aureus [18]): 0.8 h | PAE (Staphylococcus aureus [19]): 3.6 h | PAE (Enterococcus faecalis [20]): 1.5 h | PAE (Streptococcus pneumoniae [21]): 4.1 h | PAE (Staphylococcus aureus [22]): 0.8 h | time (Staphylococcus aureus [23]): > 9.1 h | PAE (Streptococcus pneumoniae [24]): 7.2 h | time (Enterococcus faecalis [25]): 8.3 h | PAE (Staphylococcus aureus [26]): 6.2 h | time (Streptococcus pneumoniae [27]): 3 h | time (Staphylococcus aureus [28]): 0.7 h | MIC (Enterococcus faecalis [29]): 1 µg/mL (≈ 1.46 µM) | MIC (Staphylococcus aureus [30]): 0.25 µg/mL (≈ 0.365 µM) | PAE (Staphylococcus aureus [31]): 1 h | time (Staphylococcus aureus [32]): 4.7 h | PAE (Streptococcus pneumoniae [33]): 2.5 h | time (Staphylococcus aureus [34]): 6.7 h
